The record followed here is BindingDB's records for doi:10.1021/acs.jmedchem.1c00110 (Korea Institute of Science and Technology, 2021).

The test addresses 5-hydroxytryptamine receptor 7 (Homo sapiens, UniProt P34969). Briefly: Displacement of [3H] D-lysergic acid diethylamide from 5-HT7R (unknown origin) transfected in HEK293 cells incubated for 1.5 hrs by microbeta scintillation counter analysis.

Chain of 5-hydroxytryptamine receptor 7 (P34969 whole entry): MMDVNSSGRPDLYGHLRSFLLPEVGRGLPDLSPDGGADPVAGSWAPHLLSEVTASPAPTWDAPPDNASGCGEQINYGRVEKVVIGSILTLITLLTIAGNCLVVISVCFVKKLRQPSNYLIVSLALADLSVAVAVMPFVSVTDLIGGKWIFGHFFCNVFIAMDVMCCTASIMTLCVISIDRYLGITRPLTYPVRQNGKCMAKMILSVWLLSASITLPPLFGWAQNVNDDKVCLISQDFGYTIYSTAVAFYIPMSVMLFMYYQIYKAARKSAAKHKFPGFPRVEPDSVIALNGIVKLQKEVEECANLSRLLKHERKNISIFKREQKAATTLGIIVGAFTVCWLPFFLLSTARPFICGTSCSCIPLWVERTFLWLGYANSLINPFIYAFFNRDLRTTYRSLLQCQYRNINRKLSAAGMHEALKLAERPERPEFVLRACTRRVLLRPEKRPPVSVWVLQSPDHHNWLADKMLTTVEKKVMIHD

A word on the Ki: it is a dissociation constant, usually derived from enzyme kinetics or from competition with a known ligand. Low readings indicate tighter binding, high ones weaker binding. `CNCCc1ccc(Cl)c(-c2ccccc2OC)c1` gave an inhibition constant (Ki) of 2.8 nM. This counts as single-digit nanomolar.

`CCNCCc1ccc(Cl)c(-c2ccccc2OC)c1` had an inhibitory constant (Ki) of 1.58 nM.
